Assay results as given in patent US20110200531A1, “TREATMENT AND DIAGNOSIS OF CENTRAL NERVOUS SYSTEM DISORDERS” (THE REGENTS OF THE UNIVERSITY OF CALIFORNIA, priority 2009, published 2011).
“Also recorded” adds a separate entry of the source.

Key:
Tg2576 mice = test: Aβ-related vaccinations in Tg2576 mice: retinal and brain pathology; assay type: in vivo; details: for Aβ deposits in hippocampal and neocortical areas of brain (6E10) / Aβ immunoreactivity in retinal microvessels / retinal amyloid angiopathy score: 10-month vaccination; for Aβ immunoreactivity in retinal microvessels / retinal amyloid angiopathy score: Aβ and vWF double-labeled microvessels, vs sham-immunized Tg2576
Experimental: The Aβ oligomer antigen was prepared from Aβ1-40 based on our previously published work (Kayed et al., 2003). Briefly, lyophilized Aβ1-40 peptides were resuspended in 50% acetonitrile in water and relyophilized. Soluble prefibrillar oligomers were prepared by dissolving 1.0 mg of peptide in 400 μl of hexafluoroisopropanol for 10˜20 minutes at room temperature. The resultant seedless solution (100 μl) was added to 900 μl of MilliQ H2O in a siliconized Eppendorf tube. After 10˜20 minutes incubation at room temperature, the samples were centrifuged for 15 minutes at 14,000×g, and the supernatant fraction (pH 2.8˜3.5) was transferred to a new siliconized tube and subjected to a gentle stream of N2 for 5˜10 minutes to evaporate the hexafluoroisopropanol. […] Oligomers were validated by atomic force microscopy, electron microscopy, and size exclusion chromatography as described previously (Kayed et al., 2003). The Aβ fibril was prepared from Aβ1-42, because it is more fibrillogenic as compared with Aβ1-40. Aβ1-40, predominantly in fibrillary form, was previously studied in a randomized, double-blind, placebo-controlled phase 2a clinical trial, study AN1792(QS-21)-201 by Gilman and colleagues (Gilman et al., 2005). Fibrils were formed by dissolving the lyophilized Aβ1-42 in 50% hexafluoroisopropanol and stirred with closed caps for 7 days. Solution is stirred again for 2 days in capped tubes with 20-gauge needle holes on the top to allow the hexafluoroisopropanol to evaporate. This whole preparation was done in a fume food to accelerate evaporation and minimize falling of dust or other foreign material. Fibrils were precipitated by centrifugation for 15 minutes at 14,000 rpm and washed in PBS, and resuspended at 2 mg/ml. For the prefibrillar oligomer antigen, Aβ oligomer (AO) molecular mimic was prepared by conjugating Aβ1-40 via a C-terminal thioester to 5-nm colloidal gold as described previously (Kayed and Glabe, 2006). […] Immunization schemes were conducted in a similar way as described previously (Zhou et al., 2005). […] Administration of an equivalent volume of PBS with the adjuvant but without any peptide antigen to both wild-type and transgenic mice was used as control. All experimental procedures were performed under protocols approved by the University of California Irvine Institutional Animal Care and Use Committee. Tissue Preparation: Mice were deeply anesthetized with an overdose of Nembutal (100 mg/kg, i.p.) and perfused transcardially with ice-cold PBS. The eyes were directly collected and fixed overnight with 4% paraformaldehyde in PBS (pH 7.4, 4° C.) following brain removal. Fixed eyes were stored in PBS containing 20% sucrose and 0.05% sodium azide (NaN3) at 4° C. until use. Following removal of lenses with forceps fixed eyes were cryomolded with OCT. Cross-retinal cryostat sections (12 μm) were thaw-mounted onto “Superfrost plus” glass slides (Fisher, Tustin, Calif.), air-dried for 30 minutes and stored at 4° C. before staining. […] Immunohistochemistry and Quantification: […] The immunoreactivity of APP, hyperphosphorylated tau (AT8), and Aβ in selected sections was also detected using the avidin-biotin complex method, followed by staining with DAB and brief counterstaining with hematoxylin. […] The results were evaluated by either fluorescence or conventional microscopy with a Leica DM microscope. Images were recorded using a Spot II charge-coupled device camera with equal exposure times for all different groups of tissues. […]

3×Tg-AD mice = test: Learning and memory in 3×Tg AD mice (novel object recognition, Morris water maze); assay type: in vivo; details: 16-month old 3×Tg-AD females
Experimental: Both 16-month old 3×Tg-AD and background-matched wild type (WT) mice (females) were fed with TMPcontaining or nutrients matched control for 60 days as described in FIG. 3. (A) On day 61, all the mice were tested for object recognition as previously described. Briefly, mice (n=14 for each group) were habituated to a 60×30 cm container for 5 min. Two identical objects were placed in the bottom of the cage as mirror images of each other. The animal was trained for 5 min followed by a 5 min retention interval in the home cage. Then one of the objects in the test container was replaced with a novel object. During the 3-min probe trial, the mouse was placed in the cage and time spent investigating both objects was measured. A recognition index (R1) score is depicted as: (TimeN (in seconds for novel object)/TimeTotal (in seconds for both old and novel objects))×100. (B-D) Starting on day 62, all the mice were trained for 9 days on the Morris water maze (MWM) exactly as described for the behavior testing. […] (C) MWMprobe trial for number of platform location crosses, and (D) MWM probe trial for time spent in the target quadrant. As shown by the p values, (*) indicates significant improvement by TMP treatments with respect to the corresponding controls.
FIG. 21A-D: Improvement of learning and memory in aged 3×Tg AD mice by TMP treatment. Novel object recognition task was performed. A recognition index (R1) score is depicted as: [TimeN (in seconds for novel object)/TimeTotal (in seconds for both old and novel objects)]×100. B-D Starting on day 62, all the mice were trained for 9 days on the Morris water maze (MWM) for the behavior testing. […] (C) MWM probe trial for number of platform location crosses, and (D) MWM probe trial for time spent in the target quadrant. As shown by the p values, (*) indicates significant improvement by the compound treatments with respect to the corresponding controls.
TMP improves pathology in brains of 3×Tg-AD mice and results in increased memory and learning (See FIGS. 3, 4, and 10). In these mice, the earliest pathological hallmark is the accumulation of intraneuronal Aβ in the hippocampus, cortex and amygdala in 4 month old 3×Tg-AD homozygous mice. […] Between 4-6 months of age 3×Tg-AD homozygous mice develop diffuse amyloid plaques in the neocortex. At 6 months the retention deficits are associated with significant impairments in spatial learning of the Morris Water Maze task. […] Brain and retina pathology was evaluated by immunohistochemistry with specific antibodies and learning and memory performance were scored using the Novel Object Recognition Task and using Morris Water Maze trials.
The ability of TMP-N to improve learning and memory in 3×Tg AD mice was assessed using novel object recognition task. […]

[1] = system: SH-SY5Y human neuroblastoma cells; test: Survival of SH-SY5Y cells following exposure to hydrogen peroxide; assay type: cell-based; details: for cell survival following exposure to hydrogen peroxide: SH-SY5Y, 25-50 μM, hydrogen peroxide 10-100 μM; for oxidative stress measured by production of malondialdehyde (MDA) and hydrogen peroxide: cultured cells (cell type not specified); for difference in protective efficacy between the two differently-sourced TMP compounds: statistical analysis, TMP-N vs TMP-S
mouse primary neurons = test: Survival of mouse primary neurons following exposure to hydrogen peroxide; assay type: cell-based; details: 25-50 μM, hydrogen peroxide 10-100 μM
5×FAD mice = test: Novel object recognition task in 5×FAD mice; assay type: in vivo; details: chow containing 300 mg/Kg from postnatal day 61 for 4 months; N=8-12
Experimental: FIG. 22: Improvement of memory in 5×FAD mice by synthetic form of TMP treatments. Novel object recognition task was performed and depicted as FIG. 21.
Wild type littermates were used for comparison. All the mice were fed with normal chow (Vehicle) or containing 300 mg/Kg either TMP-N or TMP-S from postnatal day 61 for exactly 4 months until the day for the completion of behavioral assessments.

5×FAD mouse brains = test: Abeta immunoreactivity (6E10) in 5×FAD mouse brains; assay type: in vivo, mice; details: chow containing 300 mg/Kg from postnatal day 61 for 4 months
From the text: Animal tissues were perfused with 1×PBS followed by overnight fixation in 4% paraformaldehyde in cold room. Vibrotome sections (˜50 μm thick) were immunostained with 6E10 antibody, which recognizes all forms of Abeta, and visualized by fluorescence microscopy.

5×FAD mouse retinas = test: Retinal ganglion cell (RGC) quantification in 5×FAD mouse retinas; assay type: in vivo, mice; details: chow containing 300 mg/Kg from postnatal day 61 for 4 months
Experimental: FIG. 24: Preservation of retinal ganglion cells (RGC) in 5×FAD mice by TMP (see Section 6.3.1). Numbers of RGC of wild-type, control (Vehicle) and TMP-treated mice were quantified.
5×FAD mice and wild type littermates (control) were fed with normal chow (Vehicle) or chow containing 300 mg/Kg of either TMP-N or TMP-S (see Section 6.3.1) from postnatal day 61 for exactly 4 months until the day of analysis. RGC cells were quantified in cross retinal sections as described in Liu et al., American Journal of Pathology, 2009.

Compound | Aβ deposits in hippocampal and neocortical areas of brain (6E10) (Tg2576 mice) | Aβ immunoreactivity in retinal microvessels / retinal amyloid angiopathy score (Tg2576 mice) | number of Aβ plaques / Aβ deposits in retina (Tg2576 mice; 100 μg s.c. with incomplete Freund's adjuvant once a month for 10 months, vs PBS adjuvant) | Morris water maze (MWM) acquisition performance (3×Tg-AD mice; TMP diet 60 days, trained 9 days from day 62) | learning and memory (object recognition, MWM probe trials) (3×Tg-AD mice; TMP-containing diet) | cell survival following exposure to hydrogen peroxide [1] | oxidative stress measured by production of malondialdehyde (MDA) and hydrogen peroxide [1] | difference in protective efficacy between the two differently-sourced TMP compounds [1] | cell survival following exposure to hydrogen peroxide (mouse primary neurons) | memory performance, novel object recognition task (5×FAD mice) | Abeta immunoreactivity / deposits in brain (6E10) (5×FAD mouse brains) | number of retinal ganglion cells (RGC) (5×FAD mouse retinas)
AF: Aβ fibril prepared from Aβ1-42; vaccine immunogen | notably less Aβ deposits | even greater Aβ immunoreactivity |  |  |  |  |  |  |  |  |  | 
AO: Aβ oligomer molecular mimic prepared by conjugating Aβ1-40 via a C-terminal thioester to 5-nm colloidal gold; vaccine immunogen | notably less Aβ deposits | even greater Aβ immunoreactivity | significant reduction in the number of Aβ plaques |  |  |  |  |  |  |  |  | 
Cc1nc(C)c(C)nc1C [TMP-N, tetramethylpyrazine] |  |  |  | significantly improved the performance of 3×Tg-AD mice | significantly restored learning and memory | significantly increased cell survival | remarkable reduction of oxidative stress | no significant difference | significantly increased cell survival | some negative effects; also recorded: slight negative effect on the memory performance | Abeta deposits were decreased in both cortical and hippocampal regions | slightly preserved RGC; also recorded: slight protective effect on RGC
Cc1nc(C)c(C)nc1C [TMP-S, tetramethylpyrazine] |  |  |  |  |  | significantly increased cell survival | remarkable reduction of oxidative stress | no significant difference | significantly increased cell survival | significantly improved memory performance; also recorded: significantly improved this performance |  | significantly preserved RGC; also recorded: significantly increased number of RGC
